For one assay, the system named is mechanical hyperalgesia. In words: Carrageenan induced mechanical hyperalgesia, paw pressure test (Randall & Selitto). It counts as in vivo, rat.
In a further assay the test system is cold allodynia. Put plainly: Oxaliplatin induced neuropathic cold allodynia, paw immersion test. Particulars: rat, in vivo.
The next assay deals with tactile allodynia. Put plainly: Bennett model of peripheral mononeuropathy, tactile allodynia by electronic Von Frey. It counts as in vivo, rat.
The mark [1] stands for this setting: 30 minutes after morphine 3 mg/kg / 24 hours after signal exposure.
The mark [2] stands for this setting: pair-wise Students T-test, α=0.01.

Structures are written as SMILES.

With `COc1ccc2c(c1)c(CC(=O)O)c(C)n2C(=O)c1ccc(Cl)cc1` [Indomethacin], the “applied pressure, carrageenan injected (injured) paw” value in the assay with mechanical hyperalgesia (3 h after 2% carrageenan, signals 24 h exposure, Indomethacin 30 mg/kg, MC 1% group 218±18) came to 306±21 grams. Besides, the “Carrageenan: statistical significance (P) versus MC 1% group, injured paw” value with mechanical hyperalgesia (Dunnett's test after ANOVA, N=10) was determined as 0.01. Moreover, in the assay on mechanical hyperalgesia (left paw not injected with carrageenan, Dunnett's test), the “Carrageenan model: significance versus MC 1% group, uninjured paw” value was “no significant differences between groups in the uninjured paws, except in the Indomethacin injected group”.

For `CNCC[C@H](Oc1cccc2ccccc12)c1cccs1` [duloxetine], in the assay with cold allodynia, the “Oxaliplatin: statistical significance (P) versus MC 1% control group” value was “significantly increased” and the “leg withdrawal time (latency of hind paw withdrawal)” value amounted to 13.2 ± 1.6 s.

Turning to `CN1CC[C@]23c4c5ccc(O)c4O[C@H]2[C@@H](O)C=C[C@H]3[C@H]1C5` [morphine], in the assay with tactile allodynia (setting [1]), the “average force applied, control paw, Post-Tx” value came to 578±73 grams and the “average force applied, injured paw, Post-Tx” value was 438±51 grams. In the assay with tactile allodynia (before treatment), the “average force applied, control paw, Pre-Tx” value turned out to be 300±30 grams and the “average force applied, injured paw, Pre-Tx” value was 180±27 grams. Besides, in the assay with tactile allodynia (setting [2]), the “Bennett: statistical significance (P) Pre-Tx vs. Post-Tx, Control Paw” value is below 0.00001 and the “Bennett: statistical significance (P) Pre-Tx vs. Post-Tx, Injured Paw” value was “reached statistical significance”.
